This is an account of results in US5821222A, “Cyclic depsipeptides having 18 ring atoms for combating endoparasites” (Bayer Aktiengesellschaft, priority 1992, dated 1998).

For one assay, the system named is Haemonchus contortus. The assay is described as follows: In vivo nematode test Haemonchus contortus/sheep. As to conditions: experimentally infected sheep, oral and/or intravenous; egg excretion stopped completely after treatment. On the procedure:
Haemonchus contortus/sheep
Shaft which have been infected experimentally with Haemonchus contortus were treated after the prepatent time of the parasite had elapsed. The active compounds were applied orally and/or intravenously in the form of the pure active compound.
The degree of effectiveness is determined by quantitatively counting the worm eggs excreted with the faeces before and after the treatment.
If the egg excretion has stopped completely after the treatment, this means that the worms were aborted or are damaged to such an extent that they no longer produce eggs (dosis effectiva).
Active compounds tested and effective dosage rates (dosis effectiva) can be seen from the table which follows: […]

For a further assay, the system named is Heterakis spumose. The assay is described as follows: Heterakis spumose in vitro test (mobility and egg excretion). Format: cell-based. Particulars: 10 female nematodes, incubation 3 days at 37° C. On the procedure:
(§1) Trichina lavae are isolated from mice's muscle and washed in 0.9% NaCl supplemented with 20 μg/ml sisomycin and 2 μg/ml clotrimazole. The actual incubation of approximately 20 trichinae per measurement is carried out in 2 ml of a solution composed of 10 g of Bacto Casitone, 5 g of yeast (yeast extract), 2.5 g of glucose, 0.4 g of KH2 PO4 and 0.4 g of K2 HPO4 per 500 ml, pH 7.2, containing 10 μm/ml of sisomycin and 1 μm/ml of clotrimazole. 10 mg of the substance to be tested are dissolved in 0.5 ml of DMSO, and such an amount is added to the incubation medium that the end concentration is 100, 10 and 1 μm/ml. The experiment is evaluated after incubation for 5 days at 19° C.
Female Heterakis spumose nematodes are isolated from the colon and caecum of mice. 10 females are incubated for 3 days at 37° C. in 1.5 ml of medium used for the Trichinella spiarlis in-vitro test. The addition of test substances is likewise carried out as described for the trichina test. To test the anthelmintic activity, mobility and egg excretion are assessed in comparison with the control. Enniatins A1, B and B1 are active at a concentration of 10 μM/ml.

A further assay relates to Trichinella spiralis. The assay can be described thus: Trichinella spiralis in vitro. Format: cell-based. As to conditions: Trichina larvae from mouse muscle, incubation 5 days at 19° C.; tested at 100, 10 and 1 μm/ml. On the procedure: Trichinella spiralis in vitro
as §1

SMILES strings stand for the structures.

As for `CC[C@H](C)[C@H]1C(=O)O[C@H](C)C(=O)N(C)[C@@H]([C@@H](C)CC)C(=O)O[C@H](C)C(=O)N(C)[C@@H]([C@@H](C)CC)C(=O)O[C@H](C)C(=O)N1C` [Example 1, Cyclo(N-methyl-L-isoleucyl-D-lactyl-N-methyl-L-isoleucyl-D-lactyl-N-methyl- L-isoleucyl-D-lactyl-)], the Dosis effectiva in the assay with Haemonchus contortus was found to be 5 mg/kg.
For the compound `CC[C@H](C)[C@H]1C(=O)O[C@H](C(C)C)C(=O)N(C)[C@@H](C(C)C)C(=O)O[C@H](C(C)C)C(=O)N(C)[C@@H](C(C)C)C(=O)O[C@H](C(C)C)C(=O)N1C` [Enniatin B1, enniatin B1], the “active concentration (mobility and egg excretion compared with control)” value with Heterakis spumose came to 10 μM/ml. The compound also displayed an effective concentration in the assay with Trichinella spiralis of 100 μm/ml.
The matching figures for `CC[C@H](C)[C@H]1C(=O)O[C@H](C(C)C)C(=O)N(C)[C@@H]([C@@H](C)CC)C(=O)O[C@H](C(C)C)C(=O)N(C)[C@@H](C(C)C)C(=O)O[C@H](C(C)C)C(=O)N1C` [Enniatin A1, enniatin A1]: 10 μM/ml and 100 μm/ml.
On to `CC(C)[C@H]1C(=O)O[C@H](C(C)C)C(=O)N(C)[C@@H](C(C)C)C(=O)O[C@H](C(C)C)C(=O)N(C)[C@@H](C(C)C)C(=O)O[C@H](C(C)C)C(=O)N1C` [Enniatin B, enniatin B], for which the “active concentration (mobility and egg excretion compared with control)” value in the assay on Heterakis spumose is 10 μM/ml. Besides, the effective concentration with Trichinella spiralis stood at 100 μm/ml.
